# Laboratory results: patent publication US4870057A, “Use of fructose-1,6-diphosphate in the treatment of acute alcoholic intoxication and chronic ethylism, and related pharmaceutical compositions” (priority 1988, dated 1989)
# Where “and” joins values, the source holds several entries; their conditions need not be identical. Equal entries are not always repeated.
# Legend:
# [1] = Ethanol hematic concentrations and pharmacokinetics in volunteers given ethanol orally after FDP infusion (cross-over); format: in vivo, male volunteers (human)
# From the text: (§1) Male volunteers (ages 19 to 46, 73 kg average weight) in good conditions of health as ascertained by objective test and hematologic and biochemical analyses, participated in the investigation. None of the subjects had used drugs during the week before the study nor in the course of the study.
# (§2) Each subject was given, in two sittings, with one wash-out week interval between sittings, ethanol (control) and ethanol with added fructose-1,6-diphosphate (FDP) according to an experimental cross-over design. After one night of fasting, each patient received ethanol orally, in the morning, at a rate of 0.5 g/kg body weight, as a 30% analytical grade ethyl alcohol solution in effervescent mineral water. FDP was administered at the rate of 250 mg/kg of fructose-1,6-diphosphate sodium hydrate salt in an intravenous infusion during 20 minutes (2.5 ml/kg).
# (§3) From the individual data obtained in each sitting and for each subject, the values of the following parameters were calculated: maximum concentration (Cmax), time for attaining maximum concentration (Tmax), mean life of absorption (Ab t1/2), mean life of elimination (El t1/2) and area under curve zero to infinity (AUC). The ethanol and acetaldehyde concentrations were measured in the two sittings of study and the values of the pharmacokinetic parameters given above were compared by the Student's t-test for paired data, with the exception of the maximum concentration times of ethanol which were compared by the Wilcoxon test. The level of statistical significances was set at 5%.
# [2] = Acetaldehyde hematic concentrations in volunteers given ethanol orally after FDP infusion (cross-over); format: in vivo, male volunteers (human); conditions: Student's t test for coupled data
# From the text: as §1
# as §2, with “FDP was administered at the rate of 250 mg/kg of fructose-1,6-diphosphate sodium hydrate salt in an intravenous infusion during 20 minutes (2.5 ml/kg).” left out
# as §3, with “The level of statistical significances was set at 5%.” left out
# [3] = system: patients in a state of acute drunkenness; assay: Vital signals (heart rate, arterial pressure) in patients with acute drunkenness; format: in vivo, patients (human)
# Method: (§4) 28 patients were selected, 26 males and 2 females, aged 17 to 68, which had been taken to a first aid post for traumas suffered during a state of acute drunkenness (18 cases) or to phenomena resulting from that state of drunkenness (10 cases). Of the patients under observation, 18 were chronic alcoholics and 10 were subjects with no alcoholism story (Table 4).
# (§5) The patients then received, at random, one rapid infusion of 15 g FDP as a 10% sodium salt solution of FDP, or a 5% (150 ml) glucose solution. 15 minutes after the completion of infusion, evaluations were repeated.
# (§6) Following the first anamnestic and diagnostic checks, measurements were taken of the arterial pressure and the heart rate. Then, evaluation was made, in basal conditions, of the psychic and behavioral state (psychomotor excitement, vigilance, time-space orientation and lucidity) and the neurological state (equilibrium, forefinger-nose test, palpebral, corneal and pain reflexes). For the semiquantitative evaluation of the selected parameters, severity scales with arbitrary ratings were adopted. Evaluation of lucidity was made by using the figure repeating test.
# (§7) The data obtained for each patient were compared with those obtained before the treatment by means of the mixed pattern variance analysis followed, in case of gross significance, by the Tukey's multiple comparison test. A 5% level was used as the minimum level of statistical significance.
# [4] = system: patients in a state of acute drunkenness; assay: Psychic and behavioural conditions scores in patients with acute drunkenness; format: in vivo, patients (human)
# Method: as §4, §5, §6, §7
# [5] = system: patients in a state of acute drunkenness; assay: Impairment scores in neurologic tests in patients with acute drunkenness; format: in vivo, patients (human)
# Method: as §4, §5, §6, §7
# [6] = system: chronic alcoholics at a stage of detoxication; assay: Psychiatric symptoms (psychic and behavioural state scores) in chronic alcoholics at a stage of detoxication; format: in vivo, patients (human); conditions: for Motor derangement score: FDP group (20 g/day i.v. days II-VII plus nutrition), basal 1.4; for Motor derangement score / Behavioural disorders score / Conscience disorders score: p < 0.01 vs basal; for Behavioural disorders score / Conscience disorders score: FDP group; for Behavioural disorders score: basal 1.3; for Conscience disorders score: basal 1.5
# Method: (§8) This study left out patients more than 70 years old or patients suffering from severe renal or cardiovascular impairment, diabetes or other pathologies (epilepsy, delirium […] could prevent evaluation of the investigated treatment. During study, which was conducted single blind, two therapeutic procedures were compared for a period of 8 days allotted as follows: one day (I) for selection and basic determinations at the time of alcohol withdrawal; six days (II-VII) for treatment; one day (VIII) for follow-up. […] Some of the patients received, days II to IV, a total parenteral nutrition (NTP) followed by hypercaloric diet during the remaining three days. During the study, no further drugs were administered except those which would be required by concomitant pathologies and which could not interfere with the nutritional state. In the patients imperatively requiring a control of psychomotor derangement during the abstinence period, chlordimethyldiazepam (2 mg/iv) was used and the daily doses thereof were recorded. On the first day the history, particularly in respect of alcoholism, was obtained. On days I, V and VIII a thorough examination of the patient's neurological and psychiatric conditions was performed. The psychic areas were evaluated by using simplified rating scales for the psychomotor derangement and the behaviour and consciousness disorders present in the alcohol withdrawal period. For the neurological evaluation, there were taken into consideration the reflexes, the exteroceptive and propioceptive sensitivities and the presence of ataxia, tremors and cramps, and semiquantitative ratings of 0 (no symptom or normal picture) to 3 (high severity symptom or no response) were assigned.
# [7] = system: chronic alcoholics at a stage of detoxication; assay: Neurological symptoms (impairment scores in neurological tests) in chronic alcoholics at a stage of detoxication; format: in vivo, patients (human); conditions: for Reflexes impairment score: basal 1.6, control 1.2; for Ataxia-tremors cramps impairment score: basal 1.7; for Sensitivity impairment score: basal 3.0
# Method: as §8
# [8] = Tolerability in patients with acute drunkenness; conditions: human, in vivo
# Method: as §4, §5
# [9] = no test described; cited from earlier work
smiles,measurement,setting,value
"O=C(COP(=O)(O)O)[C@@H](O)[C@H](O)[C@H](O)COP(=O)(O)O [FDP, fructose-1,6-diphosphate]","Ethanol AUC in the 0-90 min range, lower following FDP","[1]; 0-90 min, vs control (FIG. 1)",40%
same,Percent difference of ethanol concentration after FDP with respect to control (lower),[1]; 15 min,70%
same,Percent difference of ethanol concentration after FDP with respect to control (lower),[1]; 30 min,64%
same,Percent difference of ethanol concentration after FDP with respect to control (lower),[1]; 60 min,31%
same,"Ethanol AUC (zero to infinity), average","[1]; FDP session, Table 2, n = 8, SD 976, control 2229",2695 mmol·min/L
same,"Ethanol AUC (zero to infinity), average","[1]; FDP sitting, control 2695",2229 mmol·min/L
same,Significance of the difference in ethanol AUC vs control,"[1]; Student's t test, paired",no significant differences
same,Significance of the difference in ethanol maximum concentration vs control,"[1]; Student's t test, paired",the observed difference did not attain statistical significance
same,Difference in the alcohol absorption rate,"[1]; from absorption half-life vs control, p<0.05",66%
same,"Time for attaining maximum ethanol concentration, longer than control",[1]; p<0.05 vs control sitting,120%
same,"Significance of acetaldehyde concentration differences, FDP vs control",[2],no statistically significant differences at any of the considered times and ns
same,"Arterial diastolic pressure, final","[3]; 15 min after infusion of 15 g FDP, basal 67.9 (text 68), p < 0.05 vs basal, glucose 69.6 to 69.6",75.3 mm Hg and 75 mm Hg
same,"Cardiac frequency, final","[3]; 15 min after infusion of 15 g FDP, basal 103.1, p < 0.01 vs basal, glucose 101.7 to 96.9",94.4 beats/minute
same,"Arterial sistolic pressure, final","[3]; 15 min after infusion of 15 g FDP, basal 113.2, glucose 113.1 to 110.8",116.5 mm Hg
same,Blood pressure and heart rate in subjects with basal hypertension accompanied by tachycardia,[3]; after FDP,permits the normal values of both blood pressure and heart rate to be restored
same,"Heart rate, final","[3]; after FDP, from 103 basal, significant",94 pulsations/minute
same,"Motor derangement score, final","[4]; 15 min after infusion of 15 g FDP, basal 1.1, p < 0.01 vs basal, glucose 1.0 to 0.7",0.3
same,"Vigilance impairment score, final","[4]; 15 min after infusion of 15 g FDP, basal 1.1, p < 0.01 vs basal, glucose 1.2 to 1.0 (p < 0.05 vs final FDP)",0.5
same,"Lucidity level score, final","[4]; 15 min after infusion of 15 g FDP, basal 1.6, p < 0.01 vs basal, glucose 1.5 to 2.5",3.6
same,"Orientation impairment score, final","[4]; 15 min after infusion of 15 g FDP, basal 4.5, p < 0.01 vs basal, glucose 4.3 to 3.4 (p < 0.05 vs final FDP)",1.7
same,"Comparison of treatments, final values for vigilance and orientation",[4]; FDP vs glucose solution,significant difference between FDP and glucose solution
same,State of psychomotor disorder,[4]; after FDP,tends towards complete disappearance
same,"Vigilance, orientation and mental lucidity",[4]; after FDP,"notably improved, with the tendency being towards return to normal levels"
same,"Psychic and behavioural state, all parameters",[4]; after FDP vs basal,all of the parameters show to be positively and significantly influenced
same,"Corneal reflex impairment score, final","[5]; 15 min after infusion of 15 g FDP, basal 0.1, glucose 0.1 to 0.1",0.0
same,"Palpebral reflex impairment score, final","[5]; 15 min after infusion of 15 g FDP, basal 0.4, p < 0.05 vs basal, glucose 0.5 to 0.1",0.0
same,"Pain reflex impairment score, final","[5]; 15 min after infusion of 15 g FDP, basal 0.9, p < 0.05 vs basal, glucose 0.5 to 0.2",0.3
same,"""Forefinger-nose"" test impairment score, final","[5]; 15 min after infusion of 15 g FDP, basal 1.3, p < 0.01 vs basal, glucose 0.9 to 0.7",0.4
same,"Equilibrium impairment score, final","[5]; 15 min after infusion of 15 g FDP, basal 1.6, p < 0.01 vs basal, glucose 1.1 to 0.9",1.1
same,"Postural equilibrium, forefinger-nose test, palpebral and pain reflexes",[5]; after FDP,significantly improved
same,Corneal reflex in patients with basal impairment,"[5]; at the end of FDP treatment, all the patients",normal state in this respect at the end of FDP treatment
same,Motor derangement score,"[6]; day V, control 0.8",0.6
same,Motor derangement score,"[6]; day VIII, control 0.5",0.4
same,Behavioural disorders score,"[6]; day V, control 0.7",0.4
same,Conscience disorders score,"[6]; day V, control 0.6",0.3
same,Behavioural disorders score,"[6]; day VIII, control 0.5",0.3
same,Conscience disorders score,"[6]; day VIII, control 0.5",0.2
same,Consumption of chlordimethyldiazepam,[6]; FDP vs no FDP,higher consumption of chlordimethyldiazepam required by patients not having get FDP
same,"Psychiatric symptoms, improvement","[6]; day V, FDP treated patients only, p<0.01",improvement of all of the considered symptoms
same,Consciousness disorders,"[6]; eighth day, FDP treated patients, not in control group",the consciousness disorders did disappear in FDP treated patients
same,Psychiatric symptomatology connected with the alcohol withdrawal,[6]; patients treated with FDP,disappeared after only five days of treatment
same,Reflexes impairment score,"[7]; FDP group (20 g/day i.v. days II-VII plus nutrition), day V",1.2
same,Ataxia-tremors cramps impairment score,"[7]; FDP group, day V, p < 0.01 vs basal, control 0.9",1.0
same,Sensitivity impairment score,"[7]; FDP group, day V, p < 0.01 vs basal, control 2.4",2.1
same,Reflexes impairment score,"[7]; FDP group, day VIII, p < 0.01 vs basal",1.0
same,Ataxia-tremors cramps impairment score,"[7]; FDP group, day VIII, p < 0.01 vs basal, control 0.8",0.5
same,Sensitivity impairment score,"[7]; FDP group, day VIII, p < 0.01 vs basal, control 1.7",1.8
same,"Reflexes, recovery","[7]; day VIII, only in FDP treated group",the reflexes recovered to normal
same,"Remaining neurological symptomatology, FDP vs control",[7]; evolutive tendency in the course of the study,does not evidence any difference betwen the two treatments
same,Tolerability,[8],good tolerability
same,Elimination half-life of the FDP,[9],less than 15 minutes
